Molecules are shown by their SMILES. ≈ marks a conversion by molar mass, not a printed value.

Series [1] has as its system L 1210 leukemia cells. Nature of the series: Soft-agar assay, continuous incubation (Hamburger and Salmon). The note with it: Mus musculus, L1210; L 1210, continuous incubation 5 to 7 days; 4 experiments, deviation less than 15%. Type of series: cell-based. On the procedure:
(§1) The experiment was carried out in accordance with the process of Hamburger and Salmon [New Engl. J. Med. 298, 1321-1327 (1978)]. The medium was replaced by McCoy 5A, and the number of cells was reduced to 5×10^2 cells/plate.
A continuous incubation of the cells with various concentrations of the test substance from Examples 4 and 5 was carried out. The compounds to be tested were applied to the agar plates before plating-out the cell cultures. The cell cultures then grew for 5 to 7 days in the incubator in an atmosphere of 5% of CO2, 20% of O2 and 95% relative atmospheric humidity at 37° C. After this time, the number of cell colonies having a diameter from 60 μm was determined (in %) relative to the number of cell colonies which had grown in comparison without test substance.
(§2) The IC50 value for continuous and 1-hour incubation was determined from the dose/action curve.
(§3) In all cases, the experiments were carried out 4 times. The deviation in the results was less than 15%.

Series [2] has as its system L 1210 tumor cells. Nature of the series: Proliferation experiment (MTT, 72 hours). Conditions: Mus musculus, L1210, L 1210, 72 hours, 4 experiments, deviation less than 15%. The class given is cell-based. On the procedure: L 1210 tumor cells at the exponential growth phase (5×10^3 cells/ml, Roswell Park Memorial Institute (RPMI) medium) were incubated in a microtiter plate with […] for a period of 72 hours at 37° C., 5% of CO2 and 95% relative atmospheric humidity and various concentrations of the test substances. After 65 hours, 50 μl of [3-(4,5-dimethylthiazol-2-yl)-2,5-diphenyltetrazolium bromide](MTT) (2.5 mg/ml of MTT in phosphate buffer saline (PBS)) were added. The MTT was reduced by living cells into the red, water-insoluble dyestuff formazan. After a further 7 hours, the supernatant medium was carefully removed. Formazan was dissolved by adding 100 μl of dimethyl sulfoxide per recess and subsequent shaking gently. The extinction of each recess was determined using a Multisan 340 CC photometer (Messrs. Flow) at 492 nm. The results were determined from the extinction ratio of cells with test substance to cells without test substance.
as §3

The test system of series [3] is L 1210 leukemia cells. Nature of the series: Soft-agar assay, 1-hour incubation (Hamburger and Salmon). Conditions: Mus musculus, L1210; L 1210, 1-hour incubation; 4 experiments, deviation less than 15%. Type of series: cell-based. On the procedure: as §1
In the test, the cells were incubated at 37° C. for 1 hour at various concentrations of the test substance. The cells were then washed twice with McCoy 5A solution (Flow catalog, Meckenheim, FRG) and subsequently applied to agar plates in accordance with the method of Hamburger and Salmon. The cells were subsequently cultivated as described above, and the number of cell colonies was determined (evaluation as in a).
as §2, §3

Series [4] is described as follows: stability in the solid state and as a solution. The class given is physicochemical. The note with it: pH range from 3 to 9, in particular from 5 to 8.
Series [5] can be described thus: solubility. Type of series: physicochemical.
In series [6] the test system is human and animal tumor cells. Nature of the series: tumor-inhibiting action in vitro. The class given is cell-based.
Series [7] relates to Gram-positive and Gram-negative bacteria. Nature of the series: plate-agar diffusion test in vitro. The class given is cell-based. The note with it: 10 μl/test circle, 6 mm diameter.

Turning to `CC(=O)Oc1c(C2CC(OC3CCC(OC(C)=O)C(C)O3)C(OC(C)=O)C(C)O2)ccc2c1C(=O)C1=C(C2=O)C2(OC3CCC(OC(C)=O)C(C)O3)C(=O)CC(C)(O)CC2(O)C=C1` (stereo not shown) [5',4A,4C,8-Tetra-O-acetyl-urdamycin G, 5',4A,4C,8-tetra-O-acetyl urdamycin G], the IC50 in series [1] was 0.036 µg/mL (≈ 0.0408 µM); in series [2], below 1 µg/mL; in series [3] it was 0.065 µg/mL (≈ 0.0736 µM).
As for `CC1OC(OC2CC(c3ccc4c(c3O)C(=O)C3=C(C4=O)C4(OC5CCC(O)C(C)O5)C(=O)CC(C)(O)CC4(O)C=C3)OC(C)C2O)CCC1O` (stereo not shown) [Urdamycin G], in series [4], the stability result is recorded as “stable”. The solubility result in series [5] (methanol, acetone, DMSO, dioxane and chloroform) is “readily soluble”; in series [5] (water and alkanes) it was “not in water and alkanes”. The IC50 in series [1] is 0.85 µg/mL (≈ 1.19 µM); in series [2] it was 3.5 µg/mL (≈ 4.9 µM). In series [6], the tumor-inhibiting action result is listed as “tumor-inhibiting action”. Further, the antibacterial action entry in series [7] was “comes into effect both against Gram-positive and Gram-negative bacteria”.

Values taken from patent publication US4859655A, “Urdamycin G and derivatives thereof, a process for their preparation and their use” (Hoechst Aktiengesellschaft, priority 1986, dated 1989).
